Consider nine compounds from ChEMBL document CHEMBL1135618, “Design and pharmacology of N-[(3R)-1,2,3,4-tetrahydroisoquinolinium- 3-ylcarbonyl]-(1R)-1-(4-chlorobenzyl)- 2-[4-cyclohexyl-4-(1H-1,2,4-triazol- 1-ylmethyl)piperidin-1-yl]-2-oxoethylamine (1), a potent, selective, melanocortin subtype-4 receptor agonist” (J Med Chem, 2002).

The target in series [1] is T1, Melanocortin receptor 4 (Homo sapiens, UniProt P32245).
Description: Evaluated for binding affinity against Melanocortin-4 receptor by displacing [125I]-NDP-alpha-MSH radioligand expressed in CHO cells
The target in series [2] is T2, Melanocortin receptor 5 (Homo sapiens, UniProt P33032). The series is described as follows: Maximum percentage of cAMP accumulation at 10 uM relative to alpha-MSH at MC5R. In kind it is functional.
T2 sequence (P33032 whole entry): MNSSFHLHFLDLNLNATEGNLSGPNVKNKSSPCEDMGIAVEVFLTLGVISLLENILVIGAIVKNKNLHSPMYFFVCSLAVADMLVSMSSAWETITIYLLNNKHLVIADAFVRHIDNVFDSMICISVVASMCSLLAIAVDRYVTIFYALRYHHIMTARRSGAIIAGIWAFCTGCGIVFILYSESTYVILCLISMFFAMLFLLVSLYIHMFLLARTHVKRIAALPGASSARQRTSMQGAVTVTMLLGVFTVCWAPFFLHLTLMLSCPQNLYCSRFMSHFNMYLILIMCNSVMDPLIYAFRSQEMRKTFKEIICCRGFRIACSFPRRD
Series [3] has as its target T1, Melanocortin receptor 4. The series is described as follows: Maximum percent cAMP accumulation at 10 uM relative to alpha-MSH at Melanocortin-4 receptor. It is filed as functional. (Changes in cAMP serve as a functional read-out for many G protein-coupled receptors.)
For series [4], the target named is T3, Melanocortin receptor 3 (Homo sapiens, UniProt P41968). The series is described as follows: Maximum percentage of cAMP accumulation at 10 uM relative to alpha-MSH at MC3R. It is filed as functional.
T3 sequence (P41968 whole entry): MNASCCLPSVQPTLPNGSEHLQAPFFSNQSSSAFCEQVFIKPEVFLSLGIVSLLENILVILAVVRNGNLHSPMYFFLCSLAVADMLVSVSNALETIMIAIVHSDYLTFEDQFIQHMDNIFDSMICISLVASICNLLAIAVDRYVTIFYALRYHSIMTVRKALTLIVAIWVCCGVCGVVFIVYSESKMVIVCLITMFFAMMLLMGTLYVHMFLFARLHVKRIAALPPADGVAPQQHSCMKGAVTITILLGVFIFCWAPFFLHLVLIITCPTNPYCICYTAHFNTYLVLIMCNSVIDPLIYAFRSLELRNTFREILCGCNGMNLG
In series [5] the target is T2, Melanocortin receptor 5. The series is described as follows: Evaluated for binding affinity against human melanocortin 5 (hMC5R) receptor by displacing [125I]NDP-alpha-MSH radioligand expressed in CHO cells. It is filed as cell-based.
The target of series [6] is Melanocortin receptor 3 (Rattus norvegicus) (UniProt P32244). The experiment in a line: Percentage of cAMP accumulation at 10 uM relative to alpha-MSH at rat Melanocortin-3 receptor. In kind it is functional.
Melanocortin receptor 3 (Rattus norvegicus), sequence (P32244 whole entry): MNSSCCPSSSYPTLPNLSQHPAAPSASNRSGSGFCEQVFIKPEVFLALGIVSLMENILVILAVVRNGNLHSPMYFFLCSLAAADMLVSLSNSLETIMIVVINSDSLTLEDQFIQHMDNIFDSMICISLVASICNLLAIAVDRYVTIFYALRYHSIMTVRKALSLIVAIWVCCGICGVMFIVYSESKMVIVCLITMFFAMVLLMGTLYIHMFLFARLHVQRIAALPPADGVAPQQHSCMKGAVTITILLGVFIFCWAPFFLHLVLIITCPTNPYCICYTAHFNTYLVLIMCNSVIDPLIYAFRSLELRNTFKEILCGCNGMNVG
The target in series [7] is T4, Melanocortin receptor 4 (Rattus norvegicus, UniProt P70596). The series is described as follows: Evaluated for binding affinity against rat Melanocortin-4 receptor (rMC4R) by displacing [125I]NDP-alpha-MSH radioligand expressed in CHO cells. In kind it is cell-based.
T4 sequence (P70596 whole entry): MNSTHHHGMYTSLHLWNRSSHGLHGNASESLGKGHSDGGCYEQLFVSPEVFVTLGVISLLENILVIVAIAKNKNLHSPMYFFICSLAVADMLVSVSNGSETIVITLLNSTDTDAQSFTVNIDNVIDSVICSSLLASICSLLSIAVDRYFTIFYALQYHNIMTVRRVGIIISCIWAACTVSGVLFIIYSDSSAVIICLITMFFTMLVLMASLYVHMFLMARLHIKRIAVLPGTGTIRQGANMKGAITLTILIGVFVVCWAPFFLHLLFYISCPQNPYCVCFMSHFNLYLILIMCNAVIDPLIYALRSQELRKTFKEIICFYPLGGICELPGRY
Series [8] can be described thus: Percent bioavailability in rat evaluated at a dose 1 mg/kg (intravenous) and 10 mg/kg administered orally and was evaluated for. In kind it is ADME, organism-based. Conditions: in vivo, po.
The target of series [9] is T5, Melanocortin receptor 3 (Rattus norvegicus, UniProt P32244). The series is described as follows: Functional activity as concentration at 50% maximum cAMP accumulation in rat Melanocortin-3 receptor (rMC3R).
T5 sequence (P32244 whole entry): as the sequence (P32244 whole entry) above
The target in series [10] is Melanocyte-stimulating hormone receptor (Homo sapiens) (UniProt Q01726). The following applies: 10 uM.
Melanocyte-stimulating hormone receptor (Homo sapiens), sequence (Q01726 whole entry, looked up): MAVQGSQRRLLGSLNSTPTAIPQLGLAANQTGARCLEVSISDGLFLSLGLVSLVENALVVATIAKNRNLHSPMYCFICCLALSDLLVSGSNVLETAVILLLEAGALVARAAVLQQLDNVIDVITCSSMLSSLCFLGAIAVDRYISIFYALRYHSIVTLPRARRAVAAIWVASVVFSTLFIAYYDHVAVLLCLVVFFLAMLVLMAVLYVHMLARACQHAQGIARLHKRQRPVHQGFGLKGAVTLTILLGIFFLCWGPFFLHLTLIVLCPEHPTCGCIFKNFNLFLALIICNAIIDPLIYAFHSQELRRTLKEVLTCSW
Description: Percentage of cAMP accumulation at 10 uM relative to alpha-MSH at hMC1R
For series [11], the target named is T2, Melanocortin receptor 5. The experiment in a line: Functional activity as concentration at 50% maximum cAMP accumulation in human […] (MC5R) receptor.
The nature of series [12]: Half life in rat evaluated at a dose 1 mg/kg (intravenous) and 10 mg/kg administered orally and was evaluated for. Conditions: in vivo. In kind it is ADME, organism-based.
For series [13], the target named is T5, Melanocortin receptor 3. The experiment in a line: Evaluated for binding affinity against rat Melanocortin-3 receptor (rMC3R) by displacing [125I]-NDP-alpha-MSH radioligand expressed in CHO cells. In kind it is cell-based.
Series [14] in a line: Evaluated for maximum time Tmax in dog at dose 0.2 mg/kg (intravenous) and 0.5 mg/kg administered orally. It is filed as functional, organism-based.
The nature of series [15]: Evaluated for plasma clearance in rat at a dose 1 mg/kg (intravenous) and 10 mg/kg administered orally. It is filed as ADME, organism-based.
A short description of series [16]: Evaluated for half life in dog at dose 0.2 mg/kg (intravenous) and 0.5 mg/kg administered orally. In kind it is ADME, organism-based, Canis lupus familiaris. The following applies: in vivo.
Series [17] has as its target T4, Melanocortin receptor 4. The series is described as follows: Functional activity as concentration at 50% maximum cAMP accumulation in rat Melanocortin-4 receptor (rMC4R).
Series [18] deals with Melanocortin receptor 5 (Rattus norvegicus) (UniProt P35345). The experiment in a line: Percentage of cAMP accumulation at 10 uM relative to alpha-MSH at rat Melanocortin-5 receptor. In kind it is functional.
Melanocortin receptor 5 (Rattus norvegicus), sequence (P35345 whole entry): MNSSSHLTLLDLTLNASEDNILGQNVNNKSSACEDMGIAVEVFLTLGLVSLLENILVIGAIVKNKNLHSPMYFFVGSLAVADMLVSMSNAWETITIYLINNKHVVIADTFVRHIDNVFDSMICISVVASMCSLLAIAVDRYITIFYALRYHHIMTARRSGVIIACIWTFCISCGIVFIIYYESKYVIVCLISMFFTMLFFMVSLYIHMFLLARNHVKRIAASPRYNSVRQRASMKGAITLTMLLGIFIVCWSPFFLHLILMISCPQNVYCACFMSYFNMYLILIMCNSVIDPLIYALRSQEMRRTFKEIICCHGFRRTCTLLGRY
A short description of series [19]: Volume of distribution evaluated at a dose 0.2 mg/kg (intravenous) and 0.5 mg/kg administered orally in dog.
The target of series [20] is T2, Melanocortin receptor 5. The series is described as follows: Evaluated for Functional Activity at MC5R as effective concentration at 50% maximum CMP accumulation.
The nature of series [21]: Evaluated for Plasma clearance in dog at dose 0.2 mg/kg (intravenous) and 0.5 mg/kg administered orally. In kind it is ADME, organism-based, Canis lupus familiaris.
Series [22] has as its target Melanocortin receptor 4 (Rattus norvegicus) (UniProt P70596). Conditions: 10 uM.
Description: Percentage of cAMP accumulation at 10 uM relative to alpha-MSH at rat Melanocortin-4 receptor
A short description of series [23]: Evaluated for maximum time Tmax in rat at a dose 1 mg/kg (intravenous) and 10 mg/kg administered orally. In kind it is functional, organism-based.
Series [24] in a line: Evaluated for % bioavailability in dogat a dose 0.2 mg/kg (intravenous) and 0.5 mg/kg administered orally. It is filed as ADME, organism-based, Canis lupus familiaris. The following applies: dog, in vivo, po.
In series [25] the target is T6, Melanocortin receptor 5 (Rattus norvegicus, UniProt P35345). The experiment in a line: Evaluated for binding affinity against rat Melanocortin-5 receptor (rMC5R) by displacing [125I]NDP-alpha-MSH radioligand expressed in CHO cells. It is filed as cell-based.
T6 sequence (P35345 whole entry): as above
The target of series [26] is T6, Melanocortin receptor 5. The series is described as follows: Functional activity as concentration at 50% maximum cAMP accumulation in rat Melanocortin-5 receptor (rMC5R).
In series [27] the target is T2, Melanocortin receptor 5. The following applies: 10 uM.
Description: Percentage of cAMP accumulation at 10 uM relative to alpha-MSH at human Melanocortin 5 receptor
A short description of series [28]: Volume of distribution evaluated at a dose 1 mg/kg (intravenous) and 10 mg/kg administered orally in rat. In kind it is functional, organism-based.
Series [29] deals with T3, Melanocortin receptor 3. The following applies: 10 uM.
Description: Percentage of cAMP accumulation at 10 uM relative to alpha-MSH at human Melanocortin-3 receptor
For series [30], the target named is Melanocortin receptor (M3 and M4) (Homo sapiens) (UniProt P32245+P41968). The experiment in a line: Evaluated for selectivity for MC3R versus MC4R displacing [125I]NDP-alpha-MSH radioligand expressed in CHO cells. In kind it is cell-based.
In series [31] the target is T3, Melanocortin receptor 3. The series is described as follows: Evaluated for Functional Activity at MC3R as effective concentration at 50% maximum CMP accumulation.
Series [32] addresses T1, Melanocortin receptor 4. The series is described as follows: Evaluated for Functional Activity at Melanocortin-4 receptor as effective concentration at 50% maximum CMP accumulation.
Series [33] relates to Melanocortin receptor 5 + Melanocortin receptor 4 (Homo sapiens). The experiment in a line: Evaluated for selectivity for MC5R versus MC4R displacing [125I]NDP-alpha-MSH radioligand expressed in CHO cells.
Series [34] has as its target T3, Melanocortin receptor 3. The experiment in a line: Evaluated for Functional Activity at MC3R as % of cAMP accumulation at 10 uM relative to alpha-MSH.

T1 sequence (P32245 whole entry): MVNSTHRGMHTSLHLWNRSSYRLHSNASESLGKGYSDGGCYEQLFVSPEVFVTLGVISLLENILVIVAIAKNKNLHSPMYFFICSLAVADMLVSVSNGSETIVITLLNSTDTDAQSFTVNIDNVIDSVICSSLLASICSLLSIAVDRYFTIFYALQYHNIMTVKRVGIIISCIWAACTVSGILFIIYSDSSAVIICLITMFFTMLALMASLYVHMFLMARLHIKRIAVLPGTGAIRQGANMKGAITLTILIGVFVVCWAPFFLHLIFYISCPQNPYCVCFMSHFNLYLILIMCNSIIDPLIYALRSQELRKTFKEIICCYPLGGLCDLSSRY
Melanocortin receptor 4 (Rattus norvegicus), sequence (P70596 whole entry): as the sequence (P70596 whole entry) above

The term IC50 denotes the concentration needed to halve the response being measured. Higher therefore signals weaker potency. For `CS(=O)(=O)N1CC2(CCN(C(=O)[C@@H](Cc3ccc4ccccc4c3)NC(=O)[C@@H](N)Cc3cnc[nH]3)CC2)c2ccccc21`, the concentration for half-maximal inhibition (IC50) at Melanocortin receptor 4 [1] was determined as 108 nM.

Turning to `O=C(N[C@@H](Cc1ccc(Cl)cc1)C(=O)N1CCC(Cn2cncn2)(C2CCCCC2)CC1)[C@@H]1Cc2ccccc2CN1`, the Activity on Melanocortin receptor 5 [2] worked out at 5%; on Melanocortin receptor 4 [3], 34%; at Melanocortin receptor 3 [4] it was 4%.

For the compound `O=C(N[C@@H](Cc1ccc(Cl)cc1)C(=O)N1CCC(Cn2cncn2)(C2CCCCC2)CC1)[C@H]1Cc2ccccc2CN1`, the Activity was 2% on Melanocortin receptor 5 [2], 9% on Melanocortin receptor 4 [3] and 1% at Melanocortin receptor 3 [4].

In general, bioavailability refers to the share of a dose that reaches the circulation, judged against a reference dose that is usually intravenous. In general, EC50 refers to the concentration giving half of the maximal effect. Low values mean a more potent agent, high ones a less potent agent. Usually half-life stands for the time in which the quantity being followed falls by half. A higher half-life goes with slow loss. Turning to `O=C(N[C@H](Cc1ccc(Cl)cc1)C(=O)N1CCC(Cn2cncn2)(C2CCCCC2)CC1)[C@H]1Cc2ccccc2CN1`, the half-maximal inhibitory concentration (IC50) at Melanocortin receptor 5 [5] amounted to 326 nM; at Melanocortin receptor 4 [7], 0.6 nM; at Melanocortin receptor 3 [13], 1880 nM; on Melanocortin receptor 5 [25], 1570 nM. Besides, the Activation in series [6] was 65%; in series [10], 95%; in series [18] it was 58%; in series [22], 99%; on Melanocortin receptor 5 [27], 61%; at Melanocortin receptor 3 [29], 32%. Moreover, the bioavailability in series [8] worked out at 14%; in series [24], 16%. In addition, the concentration giving a half-maximal response (EC50) on Melanocortin receptor 3 [9] is 1320 nM; at Melanocortin receptor 5 [11] it was 737 nM; at Melanocortin receptor 4 [17], 2.9 nM; at Melanocortin receptor 5 [20] it was 736 nM; on Melanocortin receptor 5 [26], over 3000 nM. Moreover, the half-life in series [12] was 0.6 h; in [16] it was 1.2 h. Besides, the Tmax in series [14] was 1.5 h; in [23], 1 h. Besides, the Activity on Melanocortin receptor 5 [2] stood at 61%; on Melanocortin receptor 3 [4], 32%. Moreover, the clearance is 84 mL/min/kg in [15] and 27.6 mL/min/kg in [21]. For the same compound, the Vdss in series [19] amounted to 2.79 L/kg; in series [28] it was 3.6 L/kg.

Consider `O=C(N[C@H](Cc1ccc(Cl)cc1)C(=O)N1CCC(Cn2cncn2)(C2CCCCC2)CC1)[C@@H]1Cc2ccccc2CN1`, for which the Activity on Melanocortin receptor 5 [2] turned out to be 19%; at Melanocortin receptor 4 [3] it was 67%; at Melanocortin receptor 3 [4], 7%. The compound further registered a half-maximal effective concentration (EC50) on Melanocortin receptor 5 [20] of 271 nM.

Turning to `Cn1nnnc1CC1(C2CCCCC2)CCN(C(=O)[C@@H](Cc2ccc(Cl)cc2)NC(=O)[C@H]2Cc3ccccc3CN2)CC1`, the Activity at Melanocortin receptor 5 [2] was 51%; at Melanocortin receptor 4 [3], 103%; at Melanocortin receptor 3 [4] it was 50%. Further, the Selectivity in series [30] was 277; in [33] it was 100. Further, the results for the concentration for a half-maximal effect (EC50) on Melanocortin receptor 5 [20], at Melanocortin receptor 3 [31] and on Melanocortin receptor 4 [32] were 127 nM, 59 nM and 0.6 nM, respectively. On Melanocortin receptor 4 [1], this compound gave a 50% inhibitory concentration (IC50) of 0.3 nM.

In turn, `CS(=O)(=O)N1CC2(CCN(C(=O)[C@@H](Cc3ccccc3)NC(=O)[C@@H](N)Cc3c[nH]cn3)CC2)c2ccccc21` gave an EC50 on Melanocortin receptor 4 [32] of 500 nM.

As to `O=C(N[C@H](Cc1ccc(Cl)cc1)C(=O)N1CCC(Cc2nnn[nH]2)(C2CCCCC2)CC1)[C@H]1Cc2ccccc2CN1`, the Activity amounted to 15% on Melanocortin receptor 5 [2], 79% at Melanocortin receptor 4 [3] and 10% at Melanocortin receptor 3 [4]. Further, the results for the Selectivity in series [30] and in series [33] were 53 and 19, respectively. The IC50 against Melanocortin receptor 4 [1] worked out at 238 nM. The compound also came in with an EC50 on Melanocortin receptor 4 [32] of 771 nM.

In the case of `Cn1nnc(CC2(C3CCCCC3)CCN(C(=O)[C@@H](Cc3ccc(Cl)cc3)NC(=O)[C@H]3Cc4ccccc4CN3)CC2)n1`, the Activity was found to be 87% at Melanocortin receptor 4 [3] and 24% on Melanocortin receptor 3 [34]. The figures for the concentration for a half-maximal effect (EC50) at Melanocortin receptor 5 [20] and at Melanocortin receptor 4 [32] were 1000 nM and 9.6 nM, respectively. The IC50 against Melanocortin receptor 4 [1] was 1.2 nM.
